How the values were obtained:
Assay in all cases: relative viability (nuclei count vs DMSO), 5 days (fraction); higher = more cells survive
[1] = compound: CN[C@@H]1C[C@H]2O[C@@](C)([C@@H]1OC)n1c3ccccc3c3c4c(c5c6ccccc6n2c5c31)C(=O)NC4 [Staurosporine] + CC(=O)c1c(C)c2cnc(Nc3ccc(N4CCNCC4)cn3)nc2n(C2CCCC2)c1=O [Palbociclib] (partner 0.5 µM)
Outline: (§1)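 Lung cancer cell lines in 1536-well plates were dosed by pin tool the day after seeding, either with one drug alone or with a fixed anchor-drug dose plus five library-drug doses (not always all listed) in √10 steps. After 5 days, cells were fixed and their nuclei stained in one step (final 0.05% Triton X-100, 1% formaldehyde, 1 ug/ml Hoechst), then counted on 4× images. Relative viability is the nuclei count in treated wells divided by that in vehicle wells. Values are medians of duplicate plates.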

[2] = compound: CN[C@@H]1C[C@H]2O[C@@](C)([C@@H]1OC)n1c3ccccc3c3c4c(c5c6ccccc6n2c5c31)C(=O)NC4 [Staurosporine] + C[C@]1(O)C[C@@H](c2nc(-c3ccc4ccc(-c5ccccc5)nc4c3)c3c(N)nccn32)C1 [Linsitinib] (partner 1 µM)
Outline: as §1

[3] = compound: CN[C@@H]1C[C@H]2O[C@@](C)([C@@H]1OC)n1c3ccccc3c3c4c(c5c6ccccc6n2c5c31)C(=O)NC4 [Staurosporine] + O=C(CCCCCCC(=O)Nc1ccccc1)NO [Vorinostat] (partner 1 µM)
Outline: as §1

[4] = compound: O=c1[nH]cc(F)c(=O)[nH]1 [5-Fluorouracil] + C[C@]1(O)C[C@@H](c2nc(-c3ccc4ccc(-c5ccccc5)nc4c3)c3c(N)nccn32)C1 [Linsitinib] (partner 1 µM)
Outline: as §1

Row | Cell Line | relative viability ([1]; first compound 0.005 µM) | relative viability ([1]; first compound 0.05 µM) | relative viability ([1]; first compound 0.5 µM) | relative viability ([2]; first compound 0.005 µM) | relative viability ([2]; first compound 0.01581 µM) | relative viability ([2]; first compound 0.05 µM) | relative viability ([2]; first compound 0.1581 µM) | relative viability ([2]; first compound 0.5 µM) | relative viability ([3]; first compound 0.005 µM) | relative viability ([3]; first compound 0.05 µM) | relative viability ([3]; first compound 0.5 µM) | relative viability ([4]; first compound 0.02 µM) | relative viability ([4]; first compound 0.2 µM) | relative viability ([4]; first compound 0.6325 µM) | relative viability ([4]; first compound 2 µM) | relative viability ([1]; first compound 0.01581 µM) | relative viability ([1]; first compound 0.1581 µM) | relative viability ([3]; first compound 0.01581 µM) | relative viability ([3]; first compound 0.1581 µM)
1 | NCI-H3122 | 0.248 | 0.225 | 0.171 | 1.11 | 0.561 | 0.874 | 0.544 | 0.247 | 1.04 | 0.549 | 0.131 | 1.09 | 0.799 | 0.415 | 0.223 | – | – | – | –
2 | NCI-H2085 | 0.442 | 0.355 | 0.303 | 0.745 | 0.502 | 0.541 | 0.38 | 0.337 | 0.58 | 0.407 | 0.183 | 0.894 | 0.963 | 0.932 | 0.587 | 0.359 | 0.301 | 0.296 | 0.229
3 | PC-3 [JPC-3] | 0.563 | 0.398 | 0.343 | 0.986 | – | 0.723 | 0.559 | 0.478 | 0.351 | 0.396 | 0.376 | 0.947 | 0.949 | 0.888 | 0.698 | 0.513 | 0.398 | 0.306 | 0.297
4 | NCI-H838 | 0.151 | 0.151 | 0.0855 | 0.248 | 0.153 | 0.18 | 0.164 | 0.099 | 0.36 | 0.142 | – | 1.01 | 1.06 | 0.578 | 0.312 | 0.138 | 0.121 | 0.217 | 0.171
5 | NCI-H1755 | 0.395 | 0.263 | 0.247 | 0.856 | 0.595 | 0.283 | 0.18 | 0.171 | 0.555 | 0.223 | 0.218 | 0.96 | 0.796 | 0.322 | 0.254 | 0.339 | 0.253 | 0.477 | 0.189
6 | NCI-H650 | 0.262 | 0.224 | 0.199 | 0.472 | 0.289 | 0.249 | 0.197 | 0.177 | 0.32 | 0.234 | 0.151 | 0.866 | 0.691 | 0.511 | 0.394 | 0.208 | 0.234 | 0.162 | 0.181
7 | NCI-H1944 | 0.319 | 0.223 | 0.204 | 1.39 | – | 0.696 | 0.472 | 0.367 | 0.469 | 0.282 | 0.118 | 1.13 | 1.19 | 0.497 | 0.27 | 0.242 | 0.203 | 0.267 | 0.12
8 | LK-2 | 0.798 | 0.49 | 0.287 | 0.698 | 0.506 | 0.753 | 0.473 | 0.154 | 0.19 | 0.246 | 0.0667 | 0.767 | 0.5 | 0.584 | 0.334 | 0.555 | 0.426 | 0.0826 | 0.0977
9 | HCC-15 | 0.527 | 0.503 | 0.229 | 0.921 | – | 0.656 | 0.444 | 0.276 | 0.811 | 0.485 | 0.213 | 0.894 | 0.827 | 0.584 | 0.308 | – | 0.275 | – | 0.28
10 | PC-14 | 0.174 | 0.0379 | 0.0434 | 0.892 | 0.633 | 0.0982 | 0.0802 | 0.0859 | 0.267 | 0.0757 | 0.0287 | 0.938 | 0.943 | 0.765 | – | 0.077 | 0.0411 | 0.116 | 0.047
11 | HOP-62 | 0.334 | 0.116 | 0.0933 | 1.07 | 0.604 | 0.117 | 0.111 | 0.108 | 0.168 | 0.1 | 0.0573 | 1.11 | 1.03 | 0.86 | 0.765 | 0.194 | 0.106 | 0.0742 | 0.0731
12 | NCI-H322M | 0.476 | 0.388 | 0.467 | 1.12 | 0.648 | 0.56 | 0.427 | 0.458 | 0.581 | 0.451 | 0.398 | 0.898 | 0.747 | 0.652 | 0.64 | 0.386 | 0.433 | 0.424 | 0.405
13 | NCI-H1395 | 0.53 | 0.406 | 0.306 | 0.947 | 0.427 | 0.381 | 0.377 | 0.289 | 0.447 | 0.288 | 0.228 | 0.884 | 1.19 | 1.03 | 1.25 | 0.438 | 0.393 | 0.264 | 0.299
14 | NCI-H661 | 0.418 | 0.329 | 0.192 | 0.458 | 0.384 | 0.258 | 0.245 | 0.226 | 0.854 | 0.523 | 0.179 | 0.466 | 0.731 | 0.654 | 0.522 | 0.337 | 0.26 | 0.695 | 0.239
15 | NCI-H727 | 0.649 | 0.5 | 0.443 | 0.225 | 0.234 | 0.268 | 0.277 | 0.129 | 1.36 | 0.453 | 0.322 | 0.272 | 0.443 | 0.31 | 0.332 | 0.557 | 0.447 | 0.831 | 0.36
16 | NCI-H1734 | 0.332 | 0.202 | 0.147 | 0.849 | 0.473 | 0.294 | 0.228 | 0.164 | 0.751 | – | 0.107 | 0.762 | 1.05 | 0.706 | 0.546 | 0.204 | 0.16 | 0.236 | 0.117
17 | EKVX | 0.266 | 0.152 | 0.0893 | 0.624 | 0.357 | 0.22 | 0.183 | 0.109 | 0.597 | 0.19 | 0.181 | 0.891 | 0.282 | 0.153 | 0.142 | 0.143 | 0.168 | 0.236 | 0.248
